TGI and GI50 data for 16 compounds are collected here from PubChem BioAssay (NCI).

Holding throughout (assay): inhibition of tumour cell growth, NCI panel, 48 h
Assay [1] relates to A498 renal.
Assay [2] concerns A549 NSCLC.
Assay [3] concerns COLO 205 colon.
The subject of assay [4] is OVCAR-3 ovarian.
Assay [5] deals with SW-620 colon.
The test system of assay [6] is U251 CNS.
Assay [7] has as its system BT-549 breast.
The test system of assay [8] is K-562 leukemia.
Assay [9] relates to MDA-MB-435.
The subject of assay [10] is MCF7 breast.

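Five concentrations, 48 hours, 96-well plates. GI50: concentration for 50% inhibition of growth. TGI: total growth inhibition.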 Where a SMILES comes first, the peptide text is derived from it. [ ]: non-standard residue; d: D form. The star is where a group is joined. mTyr = N[CH](Cc1cccc(O)c1)C(=O)O; Cbz = O=C(OCc1ccccc1)*; OBn = c1ccc(CO*)cc1

Regarding `COC(=O)CC1NC(=O)C1C1(C)OCCO1` (configuration not stated), the TGI in assay [1], in [2], in assay [3], in [4], in assay [5] and in assay [6] was more than 100 µM each time.

Take `O=C(CSC1=NCCN1)Nc1ccccc1`: the TGI in assay [1] is more than 100 µM; in assay [2] it was more than 100 µM; in assay [7], 59.5 µM; in assay [8], more than 100 µM; in [9] it was more than 100 µM; in assay [4], 51.4 µM. In addition, the TGI in [5] was more than 100 µM; in assay [6] it was 39.2 µM.

As to `COc1ccc(N=C2C(=Nc3ccc(OC)cc3)N(c3ccccc3)C(=S)N2N=C=C2Sc3ccccc3N2C)cc1`, the TGI in assay [2], in [7], in assay [3], in assay [8], in assay [10] and in assay [9] was more than 100 µM in each case. The TGI in [4], in assay [5] and in [6] was more than 100 µM each time.

`Nc1ccc(C(=O)NN2C(=O)C(Cl)C2c2ccccc2)cc1` (configuration not stated): the TGI in [1], in [2], in assay [3], in assay [8], in assay [4] and in assay [5] was more than 100 µM throughout. Further, the TGI in assay [6] is more than 100 µM.

Turning to `Fc1ccccc1C1SCc2nc3cc4ccccc4cc3n21` (configuration not stated), the TGI in assay [2], in assay [7], in assay [3], in [8], in assay [10] and in assay [9] was more than 100 µM each time. For the same compound, the TGI in [4], in assay [5] and in [6] was more than 100 µM each time.

For the compound `COc1cc([C@@H]2c3cc(O)c(OC)cc3C=C(C(N)=O)[C@H]2C(N)=O)ccc1O`, the TGI in [1], in assay [2], in assay [3], in assay [8], in assay [10] and in assay [9] was more than 100 µM throughout. In addition, the TGI in assay [4], in assay [5] and in assay [6] was more than 100 µM each time.

Turning to `CCCc1ccc(NCc2cc(OC)c(OC)c(OC)c2)cc1`, the TGI was 98.6 µM in [1]; more than 100 µM in [2]; 51.6 µM in [8]; 54.4 µM in assay [4]; 81.9 µM in [6]. Besides, the GI50 in assay [4] was 19 µM.

`CC1OC(OC2C(OC(=O)[C@@H]3CC(C)(C)C[C@H]4C5=CC[C@@H]6[C@@]7(C)C[C@H](O)[C@H](OC8OC(CO)C(O)C(O)C8O)[C@@](C)(CO)[C@@H]7[C@H](O)C[C@@]6(C)[C@]5(C)CC[C@@]34C)OCC(O)C2O)C(O)C(O)C1O` (some centres not stated): the TGI in assay [7], in assay [3], in assay [8], in [10], in assay [9] and in [4] was more than 7.5 µM throughout. Besides, the TGI in [5] and in assay [6] was more than 7.5 µM each time.

Consider `COC(=O)C(Cc1cccc(O)c1)NC(=O)C(CC(=O)OCc1ccccc1)NC(=O)OCc1ccccc1` (configuration not stated) (Cbz-Asp(OBn)-[mTyr]-OMe; configuration not given here), for which the TGI in assay [1], in assay [2], in assay [7], in [3], in [8] and in assay [10] was more than 100 µM throughout. In addition, the TGI in [5] and in assay [6] was more than 100 µM in each case.

`[N-]=[N+]=C1C(=O)C2CC3CC(C2)CC1C3`: the TGI in assay [1], in [2], in assay [3], in assay [8], in assay [4] and in [5] was more than 100 µM each time. For the same compound, the TGI in assay [6] was more than 100 µM.

With `CC(C)C1=CC23CCC4C(C)(C(=O)O)CCCC4(C)C2CC1C1C(=O)N(c2ccc(C(=O)O)cc2)C(=O)C13` (configuration not stated), the TGI in [2], in assay [7], in assay [3], in assay [8], in assay [10] and in [9] was more than 100 µM throughout. Further, the TGI in assay [4], in [5] and in assay [6] was more than 100 µM each time.

For the compound `COc1ccc2c(c1)CCN1CCc3cc(OC)c(OC)cc3CC21` (configuration not stated), the TGI was more than 100 µM in assay [1]; more than 100 µM in assay [2]; 55.6 µM in assay [7]; more than 100 µM in [3]; more than 100 µM in assay [8]; more than 100 µM in [10]. Further, the TGI in assay [9], in [5] and in [6] was more than 100 µM in each case.

Regarding `CC1=NN(C(=O)CSc2nc3ccc(I)cc3c(=O)n2Cc2ccccc2)C(=O)C1`, the TGI in assay [1] was 83.7 µM; in [2] it was more than 100 µM; in assay [3], 92.5 µM; in assay [8], 74.9 µM; in assay [10], 61.3 µM; in [9] it was 75.2 µM. Also, the TGI in assay [4] was 54.9 µM; in assay [5] it was more than 100 µM; in assay [6], 67.4 µM.

Turning to `COc1ccc(/C=C2\CN(C)C/C(=C\c3ccc(OC)c(OC)c3OC)C2=O)c(OC)c1OC`, the TGI in [1] stood at 0.313 µM; in assay [2], 1.07 µM; in assay [3] it was 0.287 µM; in assay [9], 0.0541 µM; in assay [4], 0.335 µM; in [5] it was 0.425 µM. Besides, the TGI in assay [6] stood at 0.177 µM.

Consider `O=C(CC(=O)Nc1ccccc1)N/N=C/c1cc(N=Nc2ccc(Br)cc2)ccc1O`, for which the TGI in assay [2], in assay [7], in assay [3], in [8], in [10] and in [5] was more than 10 µM in each case. The same compound showed a TGI in [6] of more than 10 µM.

In the case of `COc1cccc(NC(=O)C(C#N)=C(SC)SC)c1`, the TGI in assay [1], in assay [2], in assay [7], in [3], in assay [8] and in assay [10] was more than 100 µM each time. Also, the TGI in assay [9], in [5] and in assay [6] was more than 100 µM throughout.
